Reference: PubChem BioAssay AID179 (DTP/NCI, 2004)
pEC50, pIC50: −log10 of the molar value. The source made the active and inactive calls.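 The calls were made as follows: active = compounds giving half or more protection of infected cells from virus-caused growth loss, again on retest; inactive = the rest.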

System: CEM cells HIV-1 protection, formazan growth assay
Test: NCI AIDS Antiviral Assay
Conditions: for pIC50: measured here: growth of uninfected CEM cells
Method in brief: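 CEM (human) cells, HIV-1 infected vs uninfected, 5-point dosing, formazan growth read-out. Retest threshold 50% protection.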

SMILES	pEC50	pIC50	outcome
CCCCCCCCCCCCCCCCCCn1[se]c2ccccc2c1=O	< 5.49	< 5.49	
CCOC(=O)C(=O)Nc1ccccc1C(C)C	< 3.82	< 3.82	
O=C(SC1=NCCS1)SC1=NCCS1			inactive
COc1ccc2nc3cc(Cl)ccc3c(NCCNC(=O)Cn3c(=O)n(C)c(=O)c4c3nc3c(c(=O)n(C)c(=O)n3C)[n+]4[O-])c2c1	< 4.00	4.40	
CCN(CC)CCCn1c(=O)c2cccnc2n2c3c(=O)n(C)c(=O)n(C)c3nc12	4.60	3.90	
C[N+](C)(C)Cc1c(CC#N)[nH]c2ccccc12	< 3.91	4.18	
O=c1c2ccccc2c2c1c1c3ccccc3c(=O)c1c1c3ccccc3c(=O)c21	< 3.70	< 3.70	
COC1/C=C\C=C(/C)C(=O)NC2=CC(=O)C(NC3CC3)=C(CC(C)CC(OC)C(O)C(C)/C=C(/C)C1OC(N)=O)C2=O (configuration not stated)			inactive
Clc1ccccc1CN1COc2c(ccc3ccccc23)C1	< 3.70	4.54	
O=C(O)c1ccccc1C(=O)CCC(=O)c1ccccc1C(=O)O	< 3.70	< 3.70	
CC(=O)OC1=C(C)S(=O)(=O)c2ccccc21	< 3.70	< 3.70	
Cc1cn(C2CC(COCc3ccccc3)N(CCO[Si](C)(C)C(C)(C)C)O2)c(=O)[nH]c1=O (configuration not stated)	< 3.70	4.94	
Cc1c(Cl)ccc2c1NC(=O)C2(O)CC(=O)c1ccc(Cl)cc1Cl (configuration not stated)	< 6.15	< 6.15	
O=c1ncccn1C1OC(CO)C(O)C1F (configuration not stated)			inactive
Cc1ccc2nn(-c3ccc(O)cc3)[n+]([O-])c2c1	< 3.70	< 3.70	
CC(=O)/C(N=Nc1ccc(-n2c(C)nc3ccccc3c2=O)cc1)=C(/C)O	< 3.70	< 3.70	

SMILES	pEC50	pIC50	outcome
O=C(CN1CCCCC1)OCOP(=O)(OCOC(=O)CN1CCCCC1)OCC1CCC(n2ccc(=O)[nH]c2=O)O1 (configuration not stated)	< 4.00	4.44	
CCOC(=O)c1c(N2CCCC2)ncn(-c2ccccc2)c1=S	< 3.70	< 3.70	
CC(C)(Oc1ccc(/C=C/C(=O)c2ccccc2)cc1)C(=O)Nc1c(Cl)cccc1Cl	< 5.08	< 5.08	
O=C(N/C(=C\c1ccc(/C=C(\NC(=O)c2ccccc2)c2nc3cc([N+](=O)[O-])ccc3[nH]2)cc1)c1nc2cc([N+](=O)[O-])ccc2[nH]1)c1ccccc1			inactive
CCN(CC)CCCNc1nccc2c(C)c3c(cc12)c1cnccc1n3C			inactive
C#CC(O)/C=C/C(O)CCCC(O)CC#CC(O)C#CCCCCC(O)/C=C/CCCC(=O)CCCCCCCCCCCCCCCC(O)C(O)C#CC(=O)O (configuration not stated)	< 4.30	4.55	
COc1nc2c(c(=O)[nH]1)N=C(c1ccc([N+](=O)[O-])cc1)CC(c1ccccc1)N2 (configuration not stated)	< 3.70	4.33	
COc1ccc2cc1Oc1ccc(cc1)CC1c3c(cc(OC)c4c3Oc3cc5c(cc3O4)CCN[C@@H]5C2)CCN1C (some centres not stated)			inactive
Cc1ccc(S(=O)(=O)OCCn2cnc3nc(NC(=O)c4ccccc4)[nH]c(=O)c32)cc1	< 4.24	< 4.24	
N#Cc1ccc(Sc2ccccc2)cc1C#N	< 3.96	< 3.96	
NC1=NS(=O)(=O)Nc2nc(-c3ccc([N+](=O)[O-])o3)[nH]c21	< 3.70	5.00	
O=C1NCCCCCCCCNC(=O)c2cccc1c2	< 4.86	< 4.86	
CCc1cc(Cc2cc(Cl)c(NC(=O)C(=O)C3NC(=O)NC3=O)c(CC)c2)cc(Cl)c1NC(=O)C(=O)C1NC(=O)NC1=O (configuration not stated)	< 3.82	4.61	
CCN(CC)c1ccc(N=C2C=C(Cl)C(=O)c3ncccc32)c(C)c1			inactive
CC(=O)OCC1OC(n2c(-c3ccccc3)c(C)c(C)c(C#N)c2=S)C(OC(C)=O)C(OC(C)=O)C1OC(C)=O (configuration not stated)	< 4.00	< 4.00	
CCSc1ccc2c3c(cccc13)C(=O)N(CCc1ccccn1)C2=O	< 3.70	< 3.70	
